Measured values from patent US10258048B2, “Bacillus sp. strain with antifungal, antibacterial and growth promotion activity” (Marrone Bio Innovations, Inc, priority 2012, dated 2019).

tested on: Bacillus sp. isolate F727; assay: Antibiotic susceptibility of Bacillus sp. isolate F727, antibiotic discs on Mueller-Hinton agar; format: cell-based; parameters: key: +++ indicates highly susceptible (no growth); ++ indicates moderately susceptible (reduced growth); − indicates no susceptibility; details: pre-loaded antibiotic discs (load in ug); 25° C., 48 hours
Protocol: Antibiotic susceptibility of Bacillus sp. isolate F727 was tested using antibiotic discs on Muller-Hinton medium. A loopful of F727 was resuspended in 1 mL of sterile deionized water, and 100 μL of this suspension was streaked onto a Mueller-Hinton agar plate. After absorption of the streak into the agar, pre-loaded antibiotic discs were placed on the plate, and the plate was incubated at 25° C. for 48 hours.

Molecule | Susceptibility of Bacillus sp. F727 to various antibiotics
[H]/N=C(/N)N[C@H]1[C@H](O)[C@@H](O)[C@H](O[C@@H]2O[C@@H](C)[C@](O)(C=O)[C@H]2O[C@@H]2O[C@@H](CO)[C@H](O)[C@@H](O)[C@@H]2NC)[C@@H](N/C(N)=N\[H])[C@@H]1O [Streptomycin] | ++
C[C@@H](O)[C@H]1C(=O)N2C(C(=O)O)=C(SCCN=CN)C[C@H]12 [Imipenem] | +++
O=C(O)c1cn(C2CC2)c2cc(N3CCNCC3)c(F)cc2c1=O [Ciprofloxacin] | +++
O=C(N[C@H](CO)[C@H](O)c1ccc([N+](=O)[O-])cc1)C(Cl)Cl [Chloramphenicol] | +++
Penicillin | +++
CC1(C)S[C@@H]2[C@H](NC(=O)[C@H](N)c3ccccc3)C(=O)N2[C@H]1C(=O)O [Ampicillin] | +++
CCN1CCN(C(=O)N[C@@H](C(=O)N[C@@H]2C(=O)N3[C@@H]2SC(C)(C)[C@@H]3C(=O)O)c2ccccc2)C(=O)C1=O [Piperacillin] | +++
CN(C)[C@@H]1C(O)=C(C(N)=O)C(=O)[C@@]2(O)C(O)=C3C(=O)c4c(O)cccc4[C@@](C)(O)[C@H]3C[C@@H]12 [Tetracycline] | +++
CO/N=C(\C(=O)N[C@@H]1C(=O)N2C(C(=O)O)=C(COC(N)=O)CS[C@H]12)c1ccco1 [Cefuroxime] | +++
Sulphamethoxazole-Trimethoprim | +++
CN(C)[C@@H]1C(O)=C(C(N)=O)C(=O)[C@@]2(O)C(O)=C3C(=O)c4c(O)cccc4[C@@](C)(O)[C@H]3[C@H](O)[C@@H]12 [Oxytetracycline] | +++
Gentamicin | +++
NC[C@H]1O[C@H](O[C@H]2[C@H](O)[C@@H](O[C@H]3O[C@H](CO)[C@@H](O)[C@H](N)[C@H]3O)[C@H](N)C[C@@H]2N)[C@H](O)[C@@H](O)[C@@H]1O [Kanamycin] | +++
CC[C@H]1OC(=O)[C@H](C)[C@@H](O[C@H]2C[C@@](C)(OC)[C@@H](O)[C@H](C)O2)[C@H](C)[C@@H](O[C@@H]2O[C@H](C)C[C@H](N(C)C)[C@H]2O)[C@](C)(O)C[C@@H](C)C(=O)[C@H](C)[C@@H](O)[C@]1(C)O [Erythromycin] | +++
